Measured values taken from patent US20230338349A1, “LOW DOSE REGIMEN AND FORMULATION OF A 5-METHYL-1,2,4-OXADIAZOL-3-YL COMPOUND” (Eli Lilly and Company, priority 2020, published 2023).
Like-named read-outs stand apart in the source and are kept apart here.

Assay: Single ascending dose study in healthy subjects, pharmacokinetics of compound of Formula I
Format: in vivo, human
Conditions: for concentration at 0.5 h / concentration at 1 h / concentration at 1.5 h / concentration at 2 h / concentration at 3 h / concentration at 4 h / concentration at 5 h / concentration at 6 h / concentration at 8 h / concentration at 12 h / concentration at 24 h / concentration at 48 h / Tmax / half-life / Cmax / CL renal / Vd/F: human, plasma; for concentration at 0.5 h / concentration at 1 h / concentration at 1.5 h / concentration at 2 h / concentration at 3 h / concentration at 4 h / concentration at 5 h / concentration at 6 h / concentration at 8 h / concentration at 12 h / concentration at 24 h / concentration at 48 h: mean; for Vd/F: read-out: Vz/F (apparent volume of distribution after oral administration)
Protocol: A Phase 1, single-center, subject- and investigator-blind, single-ascending dose, placebo-controlled, crossover, randomized study is performed to evaluate safety, tolerability, and pharmacokinetics (PK) of the compound of Formula I in healthy subjects. The study is conducted in 2 alternating cohorts (cohorts 1 and 2) in up to 3 study periods across 6 dose levels. Subjects are randomized to 1 of 3 treatment sequences in each cohort, with each sequence including 2 doses of compound of Formula I and 1 placebo dose over the 3 study periods in a complete crossover manner.
After an overnight fast of at least 8 hours, oral capsules are administered with approximately 240 mL of room-temperature water in the morning of each dosing day in a sitting position. Doses of 0.15 mg to 2 mg are administered as an oral solution of compound of Formula I via an oral dosing syringe with water similar to oral capsule dosing.
The capsules containing the compound of Formula I are prepared extemporaneously. Oral doses of 0.15 mg to 2 mg of the compound of Formula I are prepared extemporaneously as drug in solution. For any specific cohort/dosing period, the total number of capsules administered is the same for all subjects, regardless of whether assigned to placebo or the compound of Formula I. However, the number of capsules may vary between dosing periods and cohorts. This is similarly the case for extemporaneously prepared oral dosing solutions to maintain the blind. […] A matching volume of oral solution vehicle without compound of Formula I is used as placebo for the doses of 0.15 mg to 2 mg.
Venous blood samples of approximately 3 mL each are collected to determine the plasma concentrations of compound of Formula I. Concentrations of compound of Formula I are assayed using a validated liquid chromatography with tandem mass spectrometry method. PK parameter estimates for compound of Formula I are calculated using standard noncompartmental methods of analysis. Plasma concentrations of compound of Formula I are summarized by administered dose of compound of Formula I and the approximate time of PK blood sample collection. Following the procedure essentially as described above, PK data for a single ascending dose of the compound of Formula I in healthy subjects are set forth in Table 3 and Table 4.

[1] = single oral dose 0.6 mg, geometric mean (% CV)
[2] = single oral dose 2 mg, geometric mean (% CV)
[3] = single oral dose 5 mg, geometric mean (% CV)
[4] = single oral dose 10 mg, geometric mean (% CV)
[5] = single oral dose 16 mg, geometric mean (% CV)

In the case of `CC(=O)Nc1nc(F)c(CN2CC[C@H](OCc3noc(C)n3)C[C@@H]2C)s1` [compound of Formula I, N-[4-fluoro-5-[[(2S,4S)-2-methyl-4-[(5-methyl-1,2,4-oxadiazol-3-yl)methoxy]-1-piperidyl]methyl]thiazol-2-yl]acetamide], the “AUC(0-∞) dose proportionality” value (0.6-mg to 16-mg dose range) was “increase approximately dose-proportionally”, the Cmax dose proportionality (0.6-mg to 16-mg dose range) was “increase approximately dose-proportionally” and the concentration at 0.5 h (single oral dose 0.15 mg) was 0.271 ng/mL. For the same compound, the concentration at 1 h (single oral dose 0.15 mg) was 0.278 ng/mL, the concentration at 1.5 h (single oral dose 0.15 mg) was 0.246 ng/mL and the concentration at 2 h (single oral dose 0.15 mg) was 0.179 ng/mL. For the same compound, the concentration at 3 h (single oral dose 0.15 mg) was 0.161 ng/mL, the concentration at 0.5 h (single oral dose 0.6 mg) was 6.15 ng/mL and the concentration at 1 h (single oral dose 0.6 mg) was 6.25 ng/mL. It also gave a concentration at 1.5 h (single oral dose 0.6 mg) of 5.21 ng/mL, a concentration at 2 h (single oral dose 0.6 mg) of 4.84 ng/mL and a concentration at 3 h (single oral dose 0.6 mg) of 3.96 ng/mL. For the same compound, the concentration at 4 h (single oral dose 0.6 mg) was 3.6 ng/mL, the concentration at 5 h (single oral dose 0.6 mg) was 3.02 ng/mL and the concentration at 6 h (single oral dose 0.6 mg) was 2.35 ng/mL. For the same compound, the concentration at 8 h (single oral dose 0.6 mg) was 2.1 ng/mL, the concentration at 12 h (single oral dose 0.6 mg) was 1.09 ng/mL and the concentration at 24 h (single oral dose 0.6 mg) was 0.307 ng/mL. The concentration at 0.5 h (single oral dose 2 mg) was 16.2 ng/mL, the concentration at 1 h (single oral dose 2 mg) was 21.8 ng/mL and the concentration at 1.5 h (single oral dose 2 mg) was 19.5 ng/mL. For the same compound, the concentration at 2 h (single oral dose 2 mg) was 18.6 ng/mL, the concentration at 3 h (single oral dose 2 mg) was 15.3 ng/mL and the concentration at 4 h (single oral dose 2 mg) was 12.6 ng/mL. It also gave a concentration at 5 h (single oral dose 2 mg) of 10.5 ng/mL, a concentration at 6 h (single oral dose 2 mg) of 8.75 ng/mL and a concentration at 8 h (single oral dose 2 mg) of 7.09 ng/mL. It also gave a concentration at 12 h (single oral dose 2 mg) of 4.24 ng/mL, a concentration at 24 h (single oral dose 2 mg) of 1.34 ng/mL and a concentration at 0.5 h (single oral dose 5 mg) of 14.6 ng/mL. The concentration at 1 h (single oral dose 5 mg) was 58.9 ng/mL, the concentration at 1.5 h (single oral dose 5 mg) was 55.3 ng/mL and the concentration at 2 h (single oral dose 5 mg) was 50.3 ng/mL. The concentration at 3 h (single oral dose 5 mg) was 43.1 ng/mL, the concentration at 4 h (single oral dose 5 mg) was 36.5 ng/mL and the concentration at 5 h (single oral dose 5 mg) was 29.5 ng/mL. It also gave a concentration at 6 h (single oral dose 5 mg) of 24.8 ng/mL, a concentration at 8 h (single oral dose 5 mg) of 18.4 ng/mL and a concentration at 12 h (single oral dose 5 mg) of 9.74 ng/mL. It also gave a concentration at 24 h (single oral dose 5 mg) of 2.76 ng/mL, a concentration at 48 h (single oral dose 5 mg) of 0.634 ng/mL and a concentration at 0.5 h (single oral dose 10 mg) of 28.8 ng/mL. For the same compound, the concentration at 1 h (single oral dose 10 mg) was 122 ng/mL, the concentration at 1.5 h (single oral dose 10 mg) was 127 ng/mL and the concentration at 2 h (single oral dose 10 mg) was 125 ng/mL. The concentration at 3 h (single oral dose 10 mg) was 106 ng/mL, the concentration at 4 h (single oral dose 10 mg) was 100 ng/mL and the concentration at 5 h (single oral dose 10 mg) was 81.7 ng/mL. It also gave a concentration at 6 h (single oral dose 10 mg) of 72.3 ng/mL, a concentration at 8 h (single oral dose 10 mg) of 55.1 ng/mL and a concentration at 12 h (single oral dose 10 mg) of 32.7 ng/mL. For the same compound, the concentration at 24 h (single oral dose 10 mg) was 11 ng/mL, the concentration at 48 h (single oral dose 10 mg) was 2.28 ng/mL and the concentration at 0.5 h (single oral dose 16 mg) was 59.7 ng/mL. For the same compound, the concentration at 1 h (single oral dose 16 mg) was 150 ng/mL, the concentration at 1.5 h (single oral dose 16 mg) was 183 ng/mL and the concentration at 2 h (single oral dose 16 mg) was 187 ng/mL. The concentration at 3 h (single oral dose 16 mg) was 153 ng/mL, the concentration at 4 h (single oral dose 16 mg) was 127 ng/mL and the concentration at 5 h (single oral dose 16 mg) was 100 ng/mL. It also gave a concentration at 6 h (single oral dose 16 mg) of 88 ng/mL, a concentration at 8 h (single oral dose 16 mg) of 63 ng/mL and a concentration at 12 h (single oral dose 16 mg) of 32.2 ng/mL. For the same compound, the concentration at 24 h (single oral dose 16 mg) was 6.83 ng/mL, the concentration at 48 h (single oral dose 16 mg) was 0.828 ng/mL and the Tmax (oral, summary over the single ascending doses, read-out: median tmax) was ~1 h. The half-life (oral, summary over the single ascending doses, read-out: t1/2 (converted)) was ~360 min, the Cmax (single oral dose 0.15 mg, geometric mean (% CV)) was 0.318 ng/mL and the Tmax (single oral dose 0.15 mg, median, read-out: tmax) was 1.02 h. The Cmax [1] was 6.61 ng/mL, the CL renal (single oral dose 0.6 mg, geometric mean (% CV), read-out: CLr (renal clearance) (converted)) was 19.5 mL/min and the Vd/F [1] was 120 L. It also gave a half-life (single oral dose 0.6 mg, geometric mean, read-out: t1/2 (terminal half-life) (converted)) of 365 min, a Tmax (single oral dose 0.6 mg, median, read-out: tmax) of 1 h and a Cmax [2] of 20.9 ng/mL. The CL renal (single oral dose 2 mg, geometric mean (% CV), read-out: CLr (renal clearance) (converted)) was 20.8 mL/min, the Vd/F [2] was 119 L and the half-life (single oral dose 2 mg, geometric mean, read-out: t1/2 (terminal half-life) (converted)) was 329 min. It also gave a Tmax (single oral dose 2 mg, median, read-out: tmax) of 1.25 h, a Cmax [3] of 59.1 ng/mL and a CL renal (single oral dose 5 mg, geometric mean (% CV), read-out: CLr (renal clearance) (converted)) of 19.7 mL/min. For the same compound, the Vd/F [3] was 114 L, the half-life (single oral dose 5 mg, geometric mean, read-out: t1/2 (terminal half-life) (converted)) was 374 min and the Tmax (single oral dose 5 mg, median, read-out: tmax) was 1.02 h. It also gave a Cmax [4] of 134 ng/mL, a CL renal (single oral dose 10 mg, geometric mean (% CV), read-out: CLr (renal clearance) (converted)) of 20.3 mL/min and a Vd/F [4] of 104 L. It also gave a half-life (single oral dose 10 mg, geometric mean, read-out: t1/2 (terminal half-life) (converted)) of 529 min, a Tmax (single oral dose 10 mg, median, read-out: tmax) of 1.5 h and a Cmax [5] of 199 ng/mL. It also gave a CL renal (single oral dose 16 mg, geometric mean (% CV), N = 3, read-out: CLr (renal clearance) (converted)) of 16 mL/min, a Vd/F [5] of 102 L and a half-life (single oral dose 16 mg, geometric mean, read-out: t1/2 (terminal half-life) (converted)) of 355 min. For the same compound, the Tmax (single oral dose 16 mg, median, read-out: tmax) was 1.98 h, the “Ae0-24 (amount excreted in urine up to 24 hours postdose)” value (single oral dose 0.15 mg, geometric mean, N=5) was 0.003 mg and the “AUC(0-∞)” value [1] was 44.0 (33) ngxh/mL. For the same compound, the “Ae0-24 (amount excreted in urine up to 24 hours postdose)” value [1] was 0.048 (53%) mg, the “CL/F (apparent clearance calculated after oral administration)” value [1] was 13.6 (33) L/h and the “AUC(0-∞)” value [2] was 133 (88) ngxh/mL. The “Ae0-24 (amount excreted in urine up to 24 hours postdose)” value [2] was 0.155 (57%) mg, the “CL/F (apparent clearance calculated after oral administration)” value [2] was 15.1 (88) L/h and the “AUC(0-∞)” value [3] was 396 (39) ngxh/mL. For the same compound, the “Ae0-24 (amount excreted in urine up to 24 hours postdose)” value [3] was 0.436 (57%) mg, the “CL/F (apparent clearance calculated after oral administration)” value [3] was 12.6 (39) L/h and the “AUC(0-∞)” value [4] was 1220 (28) ngxh/mL. The “Ae0-24 (amount excreted in urine up to 24 hours postdose)” value [4] was 1.3 (30%) mg, the “CL/F (apparent clearance calculated after oral administration)” value [4] was 8.20 (28) L/h and the “AUC(0-∞)” value [5] was 1340 (19) ngxh/mL. The “Ae0-24 (amount excreted in urine up to 24 hours postdose)” value [5] was 1.14 (36%) mg and the “CL/F (apparent clearance calculated after oral administration)” value [5] was 11.9 (19) L/h.
